test system: Nephotettix cincticeps; assay: Action against Nephotettix cincticeps (green rice leafhopper), contact action; format: in vivo; settings: treated filter paper dishes, adult leafhoppers, mortality after 24 hours
Text: The active compounds were formulated
a. as a 0.1% solution in acetone or
b. as a 10% emulsion in a mixture of 70% by weight of cyclohexanone, 20% by weight of Nekanil® LN (Lutensol® AP6, wetting agent having emulsifying and dispersing action based on ethoxylated alkylphenols) and 10% by weight of Wettol® EM (nonionic emulsifier based on ethoxylated castor oil)
and diluted in the case of a. with acetone and in the case of b. with water to give the desired concentration.
After the experiments had ended, in each case the lowest concentration was determined at which the compounds still caused an 80 to 100% inhibition or mortality in comparison with untreated control experiments (critical or minimal concentration).
Filter paper dishes (Ø 9 cm) were treated with 1 ml of aqueous preparations of active compounds and subsequently populated with five adult leafhoppers. After 24 hours, the mortality was determined.

SMILES | critical concentration (lowest concentration still causing 80 to 100% inhibition or mortality)
CNC(=O)/C(=N/OC)c1ccccc1COc1ncc(C(F)(F)F)cc1C [I-2, α-anti-methoxyimino-N-methyl-2-(3-methyl-5-trifluoromethyl-2-pyridyloxy)methyl-phenylacetamide] | 0.2 mg

test system: Puccinia recondita; assay: Action against Puccinia recondita on wheat (wheat leaf rust); format: in vivo; settings: 63 ppm; wheat "Frühgold"; sprayed the day after infection; 7 days; untreated plants 75%

SMILES | infection (extent of rust fungus development on leaves)
CNC(=O)/C(=N/OC)c1ccccc1COc1ncc(C(F)(F)F)cc1F [I-1, α-anti-methoxyimino-N-methyl-2-(3-fluoro-5-trifluoromethyl-2-pyridyloxy)methylphenyl-acetamide] | no infection
CNC(=O)/C(=N/OC)c1ccccc1COc1ncc(C(F)(F)F)cc1C [I-2, α-anti-methoxyimino-N-methyl-2-(3-methyl-5-trifluoromethyl-2-pyridyloxy)methyl-phenylacetamide] | no infection
CNC(=O)/C(=N/OC)c1ccccc1COc1nc(Cl)ccc1C(F)(F)F [I-3] | no infection
CNC(=O)/C(=N/OC)c1ccccc1COc1nc(Cl)c(C(F)(F)F)cc1Cl [I-6] | no infection
CNC(=O)/C(=N/OC)c1ccccc1COc1ncc(C(F)F)cc1Cl [I-8] | no infection

From patent US6372766B1, “Substituted 2-(2′-pyridyloxy)phenylacetamides, as fungicides and pesticides” (priority 1997, dated 2002)
